According to US6569686B2, “Measurement of solubility-pH profiles” (Pion, Inc., priority 2000, dated 2003):
Values after ≈ are worked out from the molar mass of the structure shown. Values joined by “and” are separate entries in the source; they are usually repeats but may differ in a detail not shown here. Equal entries are not always repeated. Where two headings read alike, the source gives them in different places. Marks after values point to notes of the source that are not given here.

What was measured:
[1] = no DMSO, cited from earlier work; for Shake-Flask So: literature / private correspondence
[2] = true aqueous intrinsic solubility corrected from pKa shifts; assay type: physicochemical; details: for solubility: aqueous buffer, kinetic from dmso stock; for log So (corrected): log of μg/mL, horizontal asymptote of dashed curve in FIG. 8
[3] = solubility-pH by aqueous dilution method, 96-well UV; assay type: physicochemical; details: kinetic from dmso stock
[4] = literature (footnotes a, b); cited from earlier work
[5] = physchem
[6] = intrinsic solubility by pSOL Model 3 acid-base titrator; assay type: physicochemical; details: pION unpublished data (footnote f)
Description: Solubility determinations are illustrated with 15 sparingly-soluble generic, mostly-ionizable drugs (FIG. 1), covering about three orders of magnitude in solubilities, with the lowest value being about 0.1 μg/mL (terfenadine at high pH). The ionizable bases include amiloride, amitriptyline, chlorpromazine, miconazole, nortriptyline, phenazopyridine, propranolol, and terfenadine. […] Piroxicam was picked as an example of an ampholyte, and griseofulvin as an example of a non-ionizable molecule. The results of the solubility measurements were compared to literature equilibrium solubility-pH values from reliable sources, and to values determined by the pSOL Model 3 (pION) acid-base titrator [A. Avdeef, C. M. Berger, C. Brownell, Pharm . Res. 2000, 17, 85-89].

[7] = apparent pKa from fitted log S vs. pH curve; assay type: physicochemical; details: saturated solutions; for pKa shift Δ (apparent pKa minus true pKa) / pKa shift Δ: DMSO-containing saturated solutions (FIG. 8); for pKa shift Δ (apparent pKa minus true pKa): read-out: pKa shift Δ = pKa^APP − pKa; for pKa shift Δ: pKa shift Δ = pKa^APP − pKa, heading: pKa shift Δ = pKa^APP − pKa
[8] = true pKa of the compounds (commercial pKa instruments / literature); assay type: physicochemical; details: pION unpublished data (footnote f)
Source text: For ionizable molecules in dilute solutions (where salt precipitation may be ignored), when the log (logarithm) of the measured solubility is plotted vs. pH, the curve is bilinear, with one segment having a zero slope and the other segment having a unit slope (positive for acids and negative for bases). […]. In a simple aqueous equilibrium system, the pH where the asymptotes of the horizontal and diagonal segments intersect is equal to the pKa of the solute. Under such ideal circumstances, it is possible to determine the pKa and the intrinsic aqueous solubility, So, of the compound from the crossing of the segments [Z. T. Chowhan, J. Pharm. Sci. 1978, 67, 1257-1260; W. H. Streng, H. G. H. Tan, Int. J. Pharm. 1985, 25, 135-145]. Such pKa values can be directly measured by commercially-available devices [C. D. Bevan, A. P. Hill, D. P. Reynolds, Patent Cooperation Treaty, WO 99/13328, Mar. 18, 1999; Sirius Analytical Instruments Ltd., UK].
(2) Also, a novel and simple computational method is developed to extract the aqueous intrinsic solubilities of drug molecules from data altered by DMSO-drug binding, or drug-drug aggregation reactions, or drug reactions with non-ionizable excipients, using the difference between the apparent pKa measured by the analytical device and the true pKa measured by analytical devices available commercially (e.g., from Sirius Analytical Instruments Ltd., Forest Row, E. Sussex, UK).
We discovered that if one determines the pKa^APP (in the presence of the DMSO effect) in the solubility assay, and subtracts from it the true pKa (determined using commercial instruments such as those from Sirius, UK), the difference, when subtracted from the logarithm of the apparent (DMSO-distorted) solubility, So^APP, yields the true aqueous solubility constant:
Since the pKas of the studied compounds are known (Table 2), it was possible to calculate the pKa shifts (Δ values in Table 1).

[9] = true pKa; literature sources (footnotes a, b, h); cited from earlier work
[10] = solubility-pH by cosolvent method (50% v/v 1-propanol), 96-well UV; assay type: physicochemical; details: universal buffer solution, aqueous buffer, kinetic from dmso stock, 0.26% v/v DMSO, read-out: So^APP (apparent intrinsic solubility)
Description: The “sample” track on the left side of FIG. 4a depicts a series of steps leading up to the taking of the sample spectrum in a water-cosolvent solution. A known quantity of sample (37) is added in a known volume of the universal buffer solution of known pH (38), the amount of said sample being sufficient to cause precipitation to occur in the formed saturated solution (39). After waiting a period of time to allow the saturated solution to reach a desired steady state, the solution is filtered (40) to remove the solid, and obtain a clear solution (41).
A volume Y of a water-miscible cosolvent 42 is added to a volume Z of solution 41 to produce a new solution 43, in which the compound is diluted by Z/(Y+Z), from its concentration in solution 41. The spectrum of solution 43 is then immediately taken by the UV spectrophotometer (44), to minimize evaporation of the water-cosolvent solution. The mathematical treatment of the spectral data yields the area-under-the-curve of the filtered cosolvent sample solution (43), AUCS^COS. […]
18. As soon as the solutions are mixed in step 17, the robot transfers 5 μL from the diluted sample stock solution (using the 20 μL tips) to the blank solutions whose spectra had just been read in step 16: 14→17 (Sd→U). […]
The solubility is calculated according to equation (8). The results for phenazopyridine stated in Table 2 were determined by the cosolvent method.

[11] = literature (Roseman, Yalkowsky 1973); cited from earlier work
[12] = pH 3
[13] = saturated pH-buffered aqueous solution (universal buffer), read-out: corrected So (intrinsic solubility corrected for drug-DMSO/drug-aggregate effects)
[14] = universal buffer solution, 0.5% v/v DMSO, 4 h shaking, read-out: So^APP (apparent intrinsic solubility)
[15] = pKa (I = 0.012 M, 50 vol % CH3CN)
[16] = read-out: corrected So (intrinsic solubility corrected for drug-DMSO/drug-aggregate effects)

COc1ccc2c(c1)c(CC(=O)O)c(C)n2C(=O)c1ccc(Cl)cc1 [indomethacin]
Shake-Flask So [1]: 2.0 µg/mL and 1 µg/mL | solubility [2, 13]: 4.1 µg/mL | solubility at 4 h [3, 14]: 7.2 µg/mL (≈ 20.1 µM) | pSOL So [4]: 2.0^a μg/mL

NCCS(=O)(=O)O [Taurine, 2-aminoethanesulfonic acid]
pKa [5, 15]: 8.95

CC(C)NCC(O)COc1cccc2ccccc12 (stereo not drawn) [propranolol]
solubility at 4 h ([3]; aqueous buffer, in 0.5% v/v DMSO, read-out: solubility): ~100 µg/mL (≈ 386 µM)

O=C(O)CO [Glycolic Acid, glycolic acid]
pKa [5, 15]: 4.56

O=C(O)Cc1ccccc1Nc1c(Cl)cccc1Cl [diclofenac]
Shake-Flask So [1]: 0.6^b μg/mL | solubility [2, 13]: 3.8 µg/mL | solubility at 4 h [3, 14]: 22.6 µg/mL (≈ 76.3 µM) | pSOL So [4]: 0.8^b μg/mL

Clc1ccc(COC(Cn2ccnc2)c2ccc(Cl)cc2Cl)c(Cl)c1 (stereo not drawn) [miconazole]
solubility [2, 13]: 1.6 µg/mL | solubility at 4 h [3, 14]: 11.1 µg/mL (≈ 26.7 µM) | pSOL So [6]: 0.7^f μg/mL | pKa shift Δ (apparent pKa minus true pKa) [7]: < 0 | pKa [8]: 6.07

CN(C)CCC=C1c2ccccc2CCc2ccccc21 [amitriptyline]
Shake-Flask So [1]: 2.0^a μg/mL | solubility [2, 13]: 3 µg/mL | solubility at 4 h [3, 14]: 56.9 µg/mL (≈ 205 µM) | pSOL So [4]: 2.0^a μg/mL | pKa shift Δ [7]: < 0 | pKa [9]: 9.45^a

Nc1ccc(/N=N/c2ccccc2)c(N)n1 [phenazopyridine]
solubility ([2]; saturated pH-buffered aqueous solution (universal buffer), from So^APP in 0.26% v/v DMSO, cosolvent method, read-out: corrected So (intrinsic solubility corrected for drug-DMSO/drug-aggregate effects)): 12.2 µg/mL | pSOL So [6]: 14.3^f μg/mL | pKa shift Δ [7]: ≥ 0 | pKa ([7]; saturated solutions containing 0.26% v/v DMSO, read-out: apparent pKa (pKa^APP)): 5.83 | solubility at 4 h [10]: 12.2 µg/mL (≈ 57.2 µM) | pKa [8]: 5.15

CN1C(C(=O)Nc2ccccn2)=C(O)c2ccccc2S1(=O)=O [piroxicam]
pKa deduced from literature solubility data ([1]; Jinno et al.): 5.63 | Shake-Flask So [1]: 9.1^i μg/mL and 8-16^j μg/mL | solubility [2, 16]: 1.1 µg/mL | log So (corrected) [2]: 0.041 | solubility at 4 h [3, 14]: 10.5 µg/mL (≈ 31.7 µM) | pKa ([7]; 0.5% v/v DMSO, solid curve in FIG. 8, read-out: apparent pKa (pKa^APP)): 6.05 | pKa shift Δ [7]: 0.98

prostaglandin F2α
pKa shift Δ = pKa^APP − pKa [11]: Δ < or = 0

CCCN(CCC)S(=O)(=O)c1ccc(C(=O)O)cc1 [probenecid]
solubility [2, 13]: 0.7 µg/mL | solubility at 4 h [3, 14]: 4.6 µg/mL (≈ 16.1 µM) | pSOL So [6]: 0.6^f μg/mL | pKa shift Δ (apparent pKa minus true pKa) [7]: > 0 | pKa [8]: 3.01

NS(=O)(=O)c1cc(C(=O)O)c(NCc2ccco2)cc1Cl [furosemide]
Shake-Flask So [1]: 12.0^b μg/mL | pSOL So [4]: 5.9^b μg/mL

CNCCC=C1c2ccccc2CCc2ccccc21 [nortriptyline]
solubility at 4 h ([3]; universal buffer solution, in 0.5% v/v DMSO, read-out: solubility): > 98 µg/mL

CC(C)(C)c1ccc(C(O)CCCN2CCC(C(O)(c3ccccc3)c3ccccc3)CC2)cc1 (stereo not drawn) [terfenadine]
solubility ([2]; at high pH, read-out: solubility (lowest value)): ~0.1 µg/mL | solubility [2, 13]: 0.1 µg/mL | solubility at 4 h [3, 14]: 4.4 µg/mL (≈ 9.33 µM) | pSOL So [6]: 0.1^f μg/mL | pKa shift Δ (apparent pKa minus true pKa) [7]: < 0 | pKa [8]: 9.53

COC1=CC(=O)C[C@@H](C)[C@]12Oc1c(Cl)c(OC)cc(OC)c1C2=O [griseofulvin]
Shake-Flask So [1]: 9^d μg/mL | solubility [2, 13]: 20.2 µg/mL | solubility at 4 h [3, 14]: 37.6 µg/mL (≈ 107 µM) | pKa [9]: non-

O=S(=O)(O)CCN1CCN(CCO)CC1 [HEPES, 4-(2-hydroxyethyl)-1-piperazineethanesulfonic acid]
pKa (I = 0.020M) [12]: 7.48

O=C(O)c1ccc2ccccc2c1 [2-naphthoic acid]
Shake-Flask So [1]: 22.4^g μg/mL | solubility [2, 13]: 20.2 µg/mL | solubility at 4 h [3, 14]: 33.3 µg/mL (≈ 193 µM) | pKa shift Δ (apparent pKa minus true pKa) [7]: > 0 | pKa [8]: 4.16

CN(C)CCCN1c2ccccc2Sc2ccc(Cl)cc21 [chlorpromazine]
solubility [2, 16]: 3.4 µg/mL | log So (corrected) [2]: 0.528 | solubility at 4 h [3, 14]: 19.4 µg/mL (≈ 60.8 µM)

OB(O)O [Boric Acid, boric acid]
pKa ([5]; pH 3, pKa (I = 0.020M)): 9.13

O=S(=O)(O)CCN1CCOCC1 [MES monohydrate, 4-morpholine-ethanesulfonic acid]
pKa ([5]; pH 3, pKa (I = 0.020M)): 6.08 | pKa [5, 15]: 6.24
